Measured values published in paper PMC3022637, “The modulation of TRPM7 currents by nafamostat mesilate depends directly upon extracellular concentrations of divalent cations” (Molecular Brain, 2010).
Read-outs that look alike come from different tables or passages of the source. One block for each compound: values may come before it.

How the values were obtained:
[1] = target: T1, TRPM7 current in cultured mouse hippocampal neurons (Mus musculus, UniProt Q923J1); experiment: Whole-cell voltage clamp of TRPM7 currents in cultured hippocampal neurons (low divalent cation-induced or compound-activated); format: cell-based; conditions: for IC50: -60 mV, acutely applied, read-out: IC50, block of TRPM7 current
T1 construct: supports the substantial involvement of endogenous TRPM7 channels in the responses of neurons; endogenous in cells; host or cells: primary cultured hippocampal neurons from embryonic Swiss mice
T1 sequence (Q923J1 whole entry): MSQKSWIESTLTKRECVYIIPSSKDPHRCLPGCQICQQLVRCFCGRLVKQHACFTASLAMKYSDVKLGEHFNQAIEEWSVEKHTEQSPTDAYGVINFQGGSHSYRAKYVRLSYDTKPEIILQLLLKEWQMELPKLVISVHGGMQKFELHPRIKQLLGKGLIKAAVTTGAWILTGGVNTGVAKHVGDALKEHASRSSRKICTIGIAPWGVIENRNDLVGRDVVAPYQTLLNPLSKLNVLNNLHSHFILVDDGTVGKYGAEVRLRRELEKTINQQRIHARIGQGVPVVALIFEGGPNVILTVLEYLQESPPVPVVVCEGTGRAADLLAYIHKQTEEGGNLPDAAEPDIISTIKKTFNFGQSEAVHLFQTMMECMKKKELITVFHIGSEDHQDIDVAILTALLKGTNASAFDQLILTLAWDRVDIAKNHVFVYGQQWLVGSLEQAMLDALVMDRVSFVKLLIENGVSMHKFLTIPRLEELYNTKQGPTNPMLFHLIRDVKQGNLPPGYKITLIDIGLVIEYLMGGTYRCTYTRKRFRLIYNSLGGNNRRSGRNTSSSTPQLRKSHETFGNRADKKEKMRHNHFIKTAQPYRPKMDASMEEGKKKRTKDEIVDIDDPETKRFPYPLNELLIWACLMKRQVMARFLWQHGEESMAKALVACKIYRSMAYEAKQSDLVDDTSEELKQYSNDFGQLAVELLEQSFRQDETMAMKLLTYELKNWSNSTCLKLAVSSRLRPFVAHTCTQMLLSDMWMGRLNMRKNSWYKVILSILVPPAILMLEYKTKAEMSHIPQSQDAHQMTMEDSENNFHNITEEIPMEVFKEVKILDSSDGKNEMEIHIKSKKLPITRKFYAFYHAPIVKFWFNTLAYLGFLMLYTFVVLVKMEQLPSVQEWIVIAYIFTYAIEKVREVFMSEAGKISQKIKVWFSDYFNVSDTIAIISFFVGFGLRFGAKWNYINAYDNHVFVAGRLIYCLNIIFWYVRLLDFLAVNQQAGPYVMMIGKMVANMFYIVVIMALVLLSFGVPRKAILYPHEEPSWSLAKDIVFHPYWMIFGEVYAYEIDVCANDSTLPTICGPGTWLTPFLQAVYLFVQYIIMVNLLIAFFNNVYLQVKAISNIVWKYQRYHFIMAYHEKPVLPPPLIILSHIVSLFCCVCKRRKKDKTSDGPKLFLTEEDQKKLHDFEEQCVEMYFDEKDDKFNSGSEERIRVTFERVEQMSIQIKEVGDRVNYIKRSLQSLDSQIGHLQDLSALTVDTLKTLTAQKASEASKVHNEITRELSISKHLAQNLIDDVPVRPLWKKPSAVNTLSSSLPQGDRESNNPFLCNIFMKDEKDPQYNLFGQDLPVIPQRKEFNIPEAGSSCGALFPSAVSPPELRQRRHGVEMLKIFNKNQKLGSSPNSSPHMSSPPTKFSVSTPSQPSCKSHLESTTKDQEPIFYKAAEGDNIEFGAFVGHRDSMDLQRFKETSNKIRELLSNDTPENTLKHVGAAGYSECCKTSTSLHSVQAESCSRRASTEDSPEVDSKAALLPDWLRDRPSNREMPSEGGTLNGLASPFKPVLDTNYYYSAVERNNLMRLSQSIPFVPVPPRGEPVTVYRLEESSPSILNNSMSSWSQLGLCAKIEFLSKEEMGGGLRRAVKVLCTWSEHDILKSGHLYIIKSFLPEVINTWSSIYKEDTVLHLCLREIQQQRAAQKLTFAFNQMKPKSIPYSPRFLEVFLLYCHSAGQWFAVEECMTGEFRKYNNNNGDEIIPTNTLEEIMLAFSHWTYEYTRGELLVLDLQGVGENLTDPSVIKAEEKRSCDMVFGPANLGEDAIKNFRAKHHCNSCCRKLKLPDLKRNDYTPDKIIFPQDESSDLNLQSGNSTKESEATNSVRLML

[2] = target: T2, wild-type (WT) human TRPM7 (Homo sapiens, UniProt Q96QT4); experiment: Whole-cell recording of recombinant TRPM7 currents in transfected HEK293T cells (voltage ramps); format: cell-based
T2 construct: expressed in transfected cells; host or cells: HEK293T
T2 sequence (Q96QT4 whole entry): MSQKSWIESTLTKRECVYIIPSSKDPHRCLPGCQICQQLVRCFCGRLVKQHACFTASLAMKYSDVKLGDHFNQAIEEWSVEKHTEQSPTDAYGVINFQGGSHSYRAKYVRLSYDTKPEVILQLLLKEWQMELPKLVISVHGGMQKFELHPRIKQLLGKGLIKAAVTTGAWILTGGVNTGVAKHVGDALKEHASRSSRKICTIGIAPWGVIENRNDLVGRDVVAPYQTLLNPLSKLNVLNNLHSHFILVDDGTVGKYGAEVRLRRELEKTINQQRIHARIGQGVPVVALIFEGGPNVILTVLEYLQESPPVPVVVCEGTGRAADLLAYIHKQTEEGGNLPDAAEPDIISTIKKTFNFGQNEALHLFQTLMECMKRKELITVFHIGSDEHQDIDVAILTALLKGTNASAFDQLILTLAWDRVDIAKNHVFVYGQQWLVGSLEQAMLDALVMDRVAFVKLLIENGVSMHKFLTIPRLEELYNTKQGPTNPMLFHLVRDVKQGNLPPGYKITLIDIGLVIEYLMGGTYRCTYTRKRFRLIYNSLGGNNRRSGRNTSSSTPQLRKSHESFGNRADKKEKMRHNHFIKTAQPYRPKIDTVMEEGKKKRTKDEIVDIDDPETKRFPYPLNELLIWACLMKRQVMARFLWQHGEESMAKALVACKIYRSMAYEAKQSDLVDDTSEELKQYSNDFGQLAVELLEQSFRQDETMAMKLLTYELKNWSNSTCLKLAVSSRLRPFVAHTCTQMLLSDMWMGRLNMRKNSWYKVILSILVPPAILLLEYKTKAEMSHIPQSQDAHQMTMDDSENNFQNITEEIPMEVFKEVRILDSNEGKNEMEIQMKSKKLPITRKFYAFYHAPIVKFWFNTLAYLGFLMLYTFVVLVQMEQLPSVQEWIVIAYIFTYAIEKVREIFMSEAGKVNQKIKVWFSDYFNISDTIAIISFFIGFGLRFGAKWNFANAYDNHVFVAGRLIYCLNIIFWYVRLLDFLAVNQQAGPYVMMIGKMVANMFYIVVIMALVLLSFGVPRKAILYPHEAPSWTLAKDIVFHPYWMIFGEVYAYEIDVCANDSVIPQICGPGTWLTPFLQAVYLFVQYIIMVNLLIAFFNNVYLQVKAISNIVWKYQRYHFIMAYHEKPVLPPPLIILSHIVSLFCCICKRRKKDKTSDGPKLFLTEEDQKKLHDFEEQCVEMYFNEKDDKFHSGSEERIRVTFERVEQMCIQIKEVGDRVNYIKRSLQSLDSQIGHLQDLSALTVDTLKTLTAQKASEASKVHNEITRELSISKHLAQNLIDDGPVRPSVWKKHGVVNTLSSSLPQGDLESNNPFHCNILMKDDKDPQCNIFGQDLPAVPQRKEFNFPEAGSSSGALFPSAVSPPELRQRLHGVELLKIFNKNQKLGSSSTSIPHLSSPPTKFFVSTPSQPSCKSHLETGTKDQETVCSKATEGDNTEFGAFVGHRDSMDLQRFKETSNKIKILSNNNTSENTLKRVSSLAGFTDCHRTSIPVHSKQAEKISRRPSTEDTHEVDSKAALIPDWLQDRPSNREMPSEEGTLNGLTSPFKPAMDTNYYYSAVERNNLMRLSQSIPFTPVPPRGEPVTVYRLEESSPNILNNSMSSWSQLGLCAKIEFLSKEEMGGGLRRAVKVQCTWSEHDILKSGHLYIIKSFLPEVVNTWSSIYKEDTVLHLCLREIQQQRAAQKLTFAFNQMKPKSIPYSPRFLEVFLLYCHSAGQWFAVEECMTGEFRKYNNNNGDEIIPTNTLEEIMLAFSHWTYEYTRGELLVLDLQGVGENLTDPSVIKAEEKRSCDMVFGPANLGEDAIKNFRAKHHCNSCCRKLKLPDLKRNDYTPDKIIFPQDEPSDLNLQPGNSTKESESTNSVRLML
Protocol: Electrophysiological recordings were made from HEK293T cells transfected wild-type (WT) human TRPM7 or the E1052A, and the D1054A mutant channels, as previously described.
Whole-cell and patch recordings were performed on HEK293T cells at room temperature (22-25°C) with Axopatch 200B (Molecular Devices, Sunnyvale, CA) amplifier. For whole-cell recordings, the Cs^+-based bath solution contained (in mM) 100 Cs-aspartate, 1 EGTA, 10 N-2-Hydroxyethylpiperazine-N'-thanesulfonic acid (HEPES) and 120 mannitol (pH adjusted to 7.4 with CsOH). When required, 1 mM ethyleneglycol-bis-(α-amino-ethyl ether) N,N'-tetra-acetic acid (EGTA) was replaced with added CaCl2 and MgCl2 as indictated in results section. The pipette solution contained 100 Cs-aspartate, 1 EGTA, 10 HEPES, 0.5 CsCl, and 100 mannitol (pH 7.4). The inhibition ratio (%) was calculated according to the following equation: inhibition ratio (%) = 100 × [1 - (INM)/(ICtl)], where ICtl is whole-cell current observed before application of NM at +100 and -100 mV. INM represents the current observed during application of NM.
Data were analyzed with Clampfit 9.2. (Molecular Devices, Sunnyvale, CA), Excel 2002 (Microsoft Corporation, Redmond, WA), Origin 5.0 (OriginLab Corp., Northhampton, MA) and finalized illustrated using CorelDraw X3 (Corel Corporation; Ontario, Canada). Currents were normalized to the amplitude of control responses. NM or DAPI inhibitory concentration-response plots were fitted to the logistic equation: I = (Amax-A0)/[1+(X/IC50)^n]+A0, where I is the normalized current amplitude, X is the antagonist concentration; n is Hill coefficient; IC50 is the concentration of antagonist that generate 50% of maximal inhibition. Results are reported for the text, the figures and amplitude histograms, as mean ± S.E.M. They represent the mean of n individual measurements on different cells. Statistical analysis was done with the unpaired or paired t-test, when appropriate. Chemicals are re-drawn based on the structures downloaded from Pubchem. NM was purchased from BioMol (Plymouth Meeting, PA) and its metabolites p-GBA and AN were from TCI and gabexate, DAPI, HSB from Sigma (St. Louis, MO).

[3] = system: T3, human TRPM7 E1052A mutant; experiment: Whole-cell recording of E1052A mutant TRPM7 currents in HEK293T cells; format: cell-based; conditions: 1 mM NM; 0.1 mM Ca2+ and 0.1 mM Mg2+; inward current at -100 mV
T3 construct: expressed in transfected cells; host or cells: HEK293T
Protocol: Electrophysiological recordings were made from HEK293T cells transfected wild-type (WT) human TRPM7 or the […], and the […] mutant channels, as previously described. Whole-cell and patch recordings were performed on HEK293T cells at room temperature (22-25°C) with Axopatch 200B (Molecular Devices, Sunnyvale, CA) amplifier. […] When required, 1 mM ethyleneglycol-bis-(α-amino-ethyl ether) N,N'-tetra-acetic acid (EGTA) was replaced with added CaCl2 and MgCl2 as indictated in results section. […] INM represents the current observed during application of NM.

[4] = system: intracellular Ca2+ in cultured hippocampal neurons; experiment: Fura-2 calcium imaging in cultured hippocampal neurons; format: cell-based, mouse
Protocol: (§1) Time-pregnant Swiss mice (embryonic day 16) were anesthetized with halothane and were decapitated. Brains of fetuses were removed rapidly and placed in Ca^2+ and Mg^2+ free ice cold PBS. Whole hippocampus or cerebral cortices were dissected under a dissection microscope and incubated with 0.05% trypsin-EDTA for 10 min at 37°C, then triturated with fire-polished glass pipettes. Cells were counted and plated in poly-L-ornithine-coated culture dishes at a density of 1 × 10^6 cells per 35 mm diameter dish. Neurons were cultured with neurobasal medium supplemented with B27 and maintained at 37°C in a humidified 5% CO2 atmosphere incubator. Cultures were fed twice a week. Neurons at 14-21 day culture stages were used for electrophysiological recordings and calcium image.
Fura-2 fluorescent Ca^2+ imaging was performed as described previously. Cortical or hippocampal neurons grown on 25 mm round glass coverslips were washed three times with ECF and incubated with 5 μM Fura-2-AM for ~ 40 min at room temperature. Neurons were then washed three times and incubated in normal ECF for 30 min. Coverslips with Fura-2-loaded neurons were transferred to a perfusion chamber on the stage of an inverted microscope (Nikon TE300, Tokyo, Japan). Cells were illuminated using a xenon lamp (75W) and observed with a 40 × UV fluor oil-immersion objective lens. Video images were obtained using a cooled CCD camera (Sensys KAF 1401, Photometrics, Tucson, AZ) mounted on an inverted microscope (Nikon TE300, Tokyo, Japan). Digitized images were acquired, stored, and analyzed in a PC controlled by Axon Imaging Workbench software (AIW2.1, Molecular Devices, Sunnyvale, CA). The shutter and filter wheel (Lambda 10-2, Sutter Instrument, Novato, CA) were also controlled by AIW to allow timed illumination of cells at 340 and 380 nm excitation wavelengths. Fura-2 fluorescence was detected at an emission wavelength of 510 nm. Ratio images of 340/380 nm were analyzed by averaging pixel ratio values in circumscribed regions of cells in the field of view. […]

[5] = system: intracellular Ca2+ in cultured mouse cortical neurons; experiment: Fura-2 calcium imaging in cultured cortical neurons; format: cell-based; conditions: NM 50 μM; without NM 1.17 ± 0.03
Protocol: as §1
Fura-2 fluorescent Ca^2+ imaging was performed as described previously. Cortical or hippocampal neurons grown on 25 mm round glass coverslips were washed three times with ECF and incubated with 5 μM Fura-2-AM for ~ 40 min at room temperature. […] Digitized images were acquired, stored, and analyzed in a PC controlled by Axon Imaging Workbench software (AIW2.1, Molecular Devices, Sunnyvale, CA). […] Fura-2 fluorescence was detected at an emission wavelength of 510 nm. Ratio images of 340/380 nm were analyzed by averaging pixel ratio values in circumscribed regions of cells in the field of view. […]

[6] = system: cultured hippocampal neurons; experiment: On-cell loose-patch recording of low Ca2+-induced action potential firing; format: cell-based, mouse; conditions: NM 200 μM; induced by 0.5 mM Ca2+ and 0.5 mM Mg2+; control 8.5 ± 2.7 Hz
[7] = system: CA1 neurons in the hippocampal slice; experiment: Low divalent-induced inward current in CA1 neurons in the hippocampal slice; format: cell-based; conditions: co-perfusion
Excerpt: To verify this we tested several compounds with benzene rings on their outer edge such as DAPI and HSB. Both DAPI and HSB are di-cations but with amidine groups at both termini. […] We also examined the actions of NM on CA1 neurons in the hippocampal slice in order to confirm whether or not NM was capable of inhibiting and activating this current in CA1 neurons in situ. The diffusion barriers presented in the slice preparation preclude very rapid changes in divalent cation concentrations but prolonged solution changes can be used to activate TRPM7 currents in this preparation. Lowering concentrations of divalent cations induced a slowly activating inward current that was attenuated by the co-perfusion of NM (not shown).

[8] = current evoked by 0.1 mM Ca2+ and 0.1 mM Mg2+
[9] = 200 μM, 0.1 mM Ca2+ and 0.1 mM Mg2+
[10] = 200 μM, current evoked by 0.1 mM Ca2+ and 0.1 mM Mg2+

direct activation of TRPM7 current at physiological divalent cations ([1]; 25 μM, 2 mM Ca2+ and 1 mM Mg2+): without effect
direct activation of TRPM7 current at physiological divalent cations ([1]; 100 μM, 2 mM Ca2+ and 1 mM Mg2+): strong effect
block of TRPM7 current ([1]; 250 μM, current evoked by 0.1 mM Ca2+ and 0.1 mM Mg2+): completely and reversibly blocked
Hill coefficient [1, 8]: 1.8
IC50 [1, 8]: 38 µM
SMILES: N=C(N)c1ccc(-c2cc3ccc(C(=N)N)cc3[nH]2)cc1 [DAPI]

increase of inhibitory potency in divalent-free solution versus 0.1 mM divalents ([2]; +100 mV): about 5 fold
Hill coefficient ([2]; +100 mV, 0.1 mM Ca2+ and 0.1 mM Mg2+): 1.4
IC50 ([2]; +100 mV, 0.1 mM Ca2+ and 0.1 mM Mg2+, read-out: IC50, inhibition of outward TRPM7 current): 617 µM
Hill coefficient ([2]; +100 mV, divalent free solution): 1.2
IC50 ([2]; +100 mV, divalent free solution, read-out: IC50, inhibition of TRPM7 current): 121 µM
increase of inhibitory potency in divalent-free solution versus 0.1 mM divalents ([2]; -100 mV): 30 fold
Hill coefficient ([2]; -100 mV, 0.1 mM Ca2+ and 0.1 mM Mg2+): 1.3
IC50 ([2]; -100 mV, 0.1 mM Ca2+ and 0.1 mM Mg2+, read-out: IC50, inhibition of inward TRPM7 current): 514 µM
Hill coefficient ([2]; -100 mV, divalent free solution): 1.3
IC50 ([2]; -100 mV, divalent free solution, read-out: IC50, inhibition of TRPM7 current): 15 µM
potentiation of TRPM7 currents ([2]; TRPM7-transfected HEK293T cells, ramp-clamp, inward currents at -100 mV): potentiates
inhibition of TRPM7 currents ([2]; in the presence of 1 mM Ca2+ and Mg2+): failed to inhibit
direct activation of TRPM7 current at physiological divalent cations ([1]; 25 μM, 2 mM Ca2+ and 1 mM Mg2+): little effects
amplitude of NM-induced current ([1]; 0.1 mM Ca2+ (with 0.1 Mg2+)): 1018 ± 120 pA
potentiation of evoked TRPM7 current, pre-exposed ([1]; 200 μM applied before lowering divalent cations, current evoked by 0.1 mM Ca2+ and 0.1 mM Mg2+): about 3.6 ± 0.4 fold
offset time constant of inhibition [1, 9]: 1.07 ± 0.20 s
onset time constant of inhibition [1, 9]: 0.29 ± 0.04 s
direct activation of TRPM7 current at physiological divalent cations ([1]; 200 μM, 2 mM Ca2+ and 1 mM Mg2+): induced small inward currents
current amplitude upon NM washout ([1]; 200 μM, 2 mM Ca2+ and 1 mM Mg2+, brief washout): 379 ± 86 pA
amplitude of NM-induced current ([1]; 200 μM, 2 mM Ca2+ and 1 mM Mg2+, during application): 243 ± 66 pA
reversal potential of NM-induced current ([1]; 200 μM, 2 mM Ca2+ and 1 mM Mg2+, voltage ramps): 0 mV
block of TRPM7 current, co-applied [1, 10]: completely blocks
block of TRPM7 current, co-applied ([1]; 200 μM, current evoked by zero divalent cations): reversibly blocked
amplitude of NM-induced current ([1]; 2 mM Ca2+ (with 1 mM Mg2+)): 291 ± 52 pA
amplitude of NM-induced current ([1]; 10 mM Ca2+ (with 1 mM Mg2+)): 147 ± 20 pA
Hill coefficient [1, 8]: 1.4
IC50 [1, 8]: 27 µM
SMILES: N=C(N)c1ccc2cc(OC(=O)c3ccc(N=C(N)N)cc3)ccc2c1 [NM, 6-amidino-2-naphthyl-4-guanidinobenzobate dimethanesulfonate]
effect on blocking potency of extracellular divalent cations ([2]; 500 μM NM): substantially reduced the blocking potency
inhibition by NM of currents, relative to WT [3]: strongly depressed
NM-induced change of intracellular concentration of Ca2+ ([4]; 200 μM, 2 mM Ca2+, no Mg2+, MK801, CNQX, nimodipine present): induced an increase
net increase of 340/380 ratio on lowering extracellular Ca2+ ([4]; NM 50 μM, Ca2+ from 2.0 mM to 0.5 mM, no added Mg2+, without NM 2.64 ± 0.48): 0.61 ± 0.32
net increase of 340/380 ratio induced by KCl ([4]; NM 50 μM, KCl 50 mM, 1.67 in the absence of NM): 1.84
net increase of 340/380 ratio on lowering extracellular Ca2+ [5]: 0.20 ± 0.08
firing frequency of action potentials [6]: 6.8 ± 2.9 Hz
effect on slowly activating inward current induced by lowering divalent cations [7]: attenuated

More lines, now with the values behind:

SMILES: N=C(N)c1ccc2cc(O)ccc2c1 [AN, 6-amidino-2-naphthol]
I compound / I control, pre-applied ([1]; 200 μM, normalized current): 85 ± 5%
block of TRPM7 current, co-applied ([1]; 1 mM (p-GBA up to 1 mM), low divalent-evoked current): only partially inhibited
I compound / I control, co-applied ([1]; 1 mM, normalized current): 69 ± 29%
potentiation of TRPM7 current, pre-applied ([1]; concentration not given): no potentiation

SMILES: [Gd+3] [Gd^3+]
inhibition of TRPM7 current activated by NM ([1]; 10 μM): 97 ± 2%

SMILES: N=C(N)NCCCCCCCCCCNC(=N)N [synthalin]
potentiation of TRPM7 current, pre-exposed ([1]; 200 μM): did not block or potentiate
block of TRPM7 current, co-applied [1, 10]: did not block or potentiate
